Test results: patent US10280159B2 (AbbVie Deutschland GmbH & Co. KG, priority 2015, dated 2019)
Where a name gives a salt, the structure may show the parent alone.

Key:
Type in all cases: cell-based
human S1PR5 = target: T1, human S1PR5 (Homo sapiens, UniProt Q9H228); test: Intracellular Ca2+ release (FLIPR) agonist potency, S1P5; details: recombinant CHO-K1 cells expressing human S1PR5, aequorin, Gq/i5; Calcium 5 FLIPR; read-out: S1P5 EC50 range
T1 construct: host or cells: CHO-K1
Protocol: (§1) Agonistic activity was measured using the method described below.
(§2) Intracellular Ca^2+ Release
(§3) Agonist potency and intrinsic activity was assessed by measurement of intracellular Ca^2+ release. Recombinant CHO-K1 cells (Euroscreen, Brussels, Belgium) expressing human S1PR5, S1PR1, S1PR3 or S1PR4 receptors, aequorin, and GTP binding protein Gq/i5 were cultured using a medium containing nutrient mixture F-12 Ham (Sigma-Aldrich) with 10% FBS, and 100 μg/mL gentamicin and equilibrated at 5% CO2.
(§4) Phospho-fingolimod was used as positive control. Antagonists were pre-incubated for 10 min with cells before addition of the agonist (phospho-fingolimod at EC80). Measurements were performed using a fluorometric imaging plate reader FLIPR®tetra (Molecular Devices). Agonist at the human S1P receptors were characterized by deducing EC50 (potency) values from a nonlinear fit to the measured fluorescence raw data after normalization to the reference agonist (phospho-fingolimod) curve.

human S1PR1 = target: T2, human S1PR1 (Homo sapiens, UniProt P21453); test: Intracellular Ca2+ release (FLIPR) agonist potency, S1P1; details: recombinant CHO-K1 cells expressing human S1PR1, aequorin, Gq/i5; Calcium 5 FLIPR; read-out: S1P1 EC50
T2 construct: host or cells: CHO-K1
T2 sequence (P21453 whole entry): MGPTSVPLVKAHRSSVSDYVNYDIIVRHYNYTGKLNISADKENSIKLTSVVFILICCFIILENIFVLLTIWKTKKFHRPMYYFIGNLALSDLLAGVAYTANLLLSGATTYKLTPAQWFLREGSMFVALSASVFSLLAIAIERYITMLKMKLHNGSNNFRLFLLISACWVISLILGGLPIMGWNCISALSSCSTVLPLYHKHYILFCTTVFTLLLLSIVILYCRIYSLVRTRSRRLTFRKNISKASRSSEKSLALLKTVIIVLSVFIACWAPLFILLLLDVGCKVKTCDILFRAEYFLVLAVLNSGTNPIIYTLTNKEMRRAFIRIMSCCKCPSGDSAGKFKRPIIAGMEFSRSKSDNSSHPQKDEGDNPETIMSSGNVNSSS
Protocol: as §1, §2, §3, §4

human S1PR4 = target: T3, human S1PR4 (Homo sapiens, UniProt O95977); test: Intracellular Ca2+ release (FLIPR) agonist potency, S1P4; details: recombinant CHO-K1 cells expressing human S1PR4, aequorin, Gq/i5; Calcium 5 FLIPR; read-out: S1P4 EC50
T3 construct: host or cells: CHO-K1
T3 sequence (O95977 1-384): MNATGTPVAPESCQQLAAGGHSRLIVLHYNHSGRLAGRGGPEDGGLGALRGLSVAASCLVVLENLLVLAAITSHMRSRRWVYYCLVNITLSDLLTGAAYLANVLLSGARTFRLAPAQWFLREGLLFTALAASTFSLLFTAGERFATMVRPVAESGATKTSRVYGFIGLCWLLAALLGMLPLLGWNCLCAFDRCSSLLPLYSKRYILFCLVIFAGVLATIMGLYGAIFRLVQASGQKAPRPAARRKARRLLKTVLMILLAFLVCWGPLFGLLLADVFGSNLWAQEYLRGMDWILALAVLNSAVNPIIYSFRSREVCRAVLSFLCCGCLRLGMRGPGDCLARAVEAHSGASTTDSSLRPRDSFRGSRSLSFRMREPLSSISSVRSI
Protocol: as §1, §2, §3, §4

T1 sequence (Q9H228 whole entry): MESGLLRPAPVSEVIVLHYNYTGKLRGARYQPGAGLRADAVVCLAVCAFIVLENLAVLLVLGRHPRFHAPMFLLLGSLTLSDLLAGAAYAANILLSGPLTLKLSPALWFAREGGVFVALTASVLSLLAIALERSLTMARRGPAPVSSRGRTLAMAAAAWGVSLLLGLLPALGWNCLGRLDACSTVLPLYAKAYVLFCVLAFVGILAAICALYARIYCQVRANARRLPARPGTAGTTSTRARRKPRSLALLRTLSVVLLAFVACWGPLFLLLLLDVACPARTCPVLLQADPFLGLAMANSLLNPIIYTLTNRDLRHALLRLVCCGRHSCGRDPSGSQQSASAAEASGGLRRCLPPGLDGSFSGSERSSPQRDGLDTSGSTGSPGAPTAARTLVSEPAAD

Row | EC50 (human S1PR5) | EC50 (human S1PR1) | EC50 (human S1PR4) | SMILES
1 | 1000 to 10000 nM | > 1000 nM | > 1000 nM | COc1ccc(COc2ccc3c(c2)OCC(N2CC(C(=O)O)C2)C3)cc1F (stereo not drawn) [Compound 95, 1-[7-[(3-fluoro-4-methoxy-phenyl)methoxy]chroman-3-yl]azetidine-3-carboxylic acid]
2 | 100 to 1000 nM | > 1000 nM | > 1000 nM | Cc1c(F)cccc1COc1ccc2c(c1)OCC(N1CC(C(=O)O)C1)C2 (stereo not drawn) [Compound 96, 1-[7-[(3-fluoro-2-methyl-phenyl)methoxy]chroman-3-yl]azetidine-3-carboxylic acid]
3 | 1000 to 10000 nM | > 1000 nM | > 1000 nM | O=C(O)C1CN(C2COc3cc(OCCOc4cccc(F)c4)ccc3C2)C1 (stereo not drawn) [Compound 97, 1-[7-[2-(3-fluorophenoxy)ethoxy]chroman-3-yl]azetidine-3-carboxylic acid]
4 | 1000 to 10000 nM | > 1000 nM | > 1000 nM | COc1ccc(F)c(COc2ccc3c(c2)OCC(N2CC(C(=O)O)C2)C3)c1 (stereo not drawn) [Compound 98, 1-[7-[(2-fluoro-5-methoxy-phenyl)methoxy]chroman-3-yl]azetidine-3-carboxylic acid]
5 | 1000 to 10000 nM | > 1000 nM | > 1000 nM | O=C(O)C1CN(C2COc3cc(OCCCc4cccc(F)c4)ccc3C2)C1 (stereo not drawn) [Compound 99, 1-[7-[3-(3-fluorophenyl)propoxy]chroman-3-yl]azetidine-3-carboxylic acid]
6 | 1000 to 10000 nM | > 1000 nM | > 1000 nM | COc1cc(F)cc(COc2ccc3c(c2)OCC(N2CC(C(=O)O)C2)C3)c1 (stereo not drawn) [Compound 100, 1-[7-[(3-fluoro-5-methoxy-phenyl)methoxy]chroman-3-yl]azetidine-3-carboxylic acid]
7 | 1000 to 10000 nM | > 1000 nM | > 1000 nM | COc1cccc(F)c1COc1ccc2c(c1)OCC(N1CC(C(=O)O)C1)C2 (stereo not drawn) [Compound 101, 1-[7-[(2-fluoro-6-methoxy-phenyl)methoxy]chroman-3-yl]azetidine-3-carboxylic acid]
8 | 1000 to 10000 nM | > 1000 nM | > 1000 nM | O=C(O)C1CN(C2COc3cc(OCc4ccc(C(F)(F)F)c(F)c4)ccc3C2)C1 (stereo not drawn) [Compound 103, 1-[7-[[3-fluoro-4-(trifluoromethyl)phenyl]methoxy]chroman-3-yl]azetidine-3-carboxylic acid]
9 | 100 to 1000 nM | > 1000 nM | > 1000 nM | O=C(O)C1CN(C2COc3cc(OCc4cc(OC(F)(F)F)ccc4F)ccc3C2)C1 (stereo not drawn) [Compound 104, 1-[7-[[2-fluoro-5-(trifluoromethoxy)phenyl]methoxy]chroman-3-yl]azetidine-3-carboxylic acid]
10 | 1000 to 10000 nM | > 1000 nM | > 1000 nM | Cc1cccc(COc2ccc3c(c2)OCC(N2CC(C(=O)O)C2)C3)c1F (stereo not drawn) [Compound 105, 1-[7-[(2-fluoro-3-methyl-phenyl)methoxy]chroman-3-yl]azetidine-3-carboxylic acid]
11 | 1000 to 10000 nM | > 1000 nM | > 1000 nM | O=C(O)C1CN(C2COc3cc(OCc4ccc(C(F)(F)F)cc4F)ccc3C2)C1 (stereo not drawn) [Compound 106, 1-[7-[[2-fluoro-4-(trifluoromethyl)phenyl]methoxy]chroman-3-yl]azetidine-3-carboxylic acid]
12 | 1000 to 10000 nM | > 1000 nM | > 1000 nM | CC(Oc1ccc2c(c1)OCC(N1CC(C(=O)O)C1)C2)c1ccccc1F (stereo not drawn) [Compound 107, 1-[7-[1-(2-fluorophenyl)ethoxy]chroman-3-yl]azetidine-3-carboxylic acid]
13 | 1000 to 10000 nM | > 1000 nM | > 1000 nM | O=C(O)C1CN(C2COc3cc(OCc4ccc5cc(F)ccc5n4)ccc3C2)C1 (stereo not drawn) [Compound 108, 1-[7-[(6-fluoro-2-quinolyl)methoxy]chroman-3-yl]azetidine-3-carboxylic acid]
14 | 100 to 1000 nM | > 1000 nM | > 1000 nM | O=C(O)C1CN(C2COc3cc(OCC4CCCCC4)ccc3C2)C1 (stereo not drawn) [Compound 109, 1-[7-(cyclohexylmethoxy)chroman-3-yl]azetidine-3-carboxylic acid]
15 | 10 to 100 nM | > 1000 nM | < 1000 nM | O=C(O)C1CCN(C2COc3cc(OCc4c(Cl)cccc4Cl)ccc3C2)CC1 (stereo not drawn) [Compound 110, 1-[7-[(2,6-dichlorophenyl)methoxy]chroman-3-yl]piperidine-4-carboxylic acid; Salt with 2,2,2-trifluoroacetic acid]
16 | < 10 nM | < 1000 nM | < 1000 nM | CCc1cccc(Cl)c1COc1ccc2c(c1)OCC(N1CCC(C(=O)O)CC1)C2 (stereo not drawn) [Compound 111, 1-[7-[(2-chloro-6-ethyl-phenyl)methoxy]chroman-3-yl]piperidine-4-carboxylic acid; Salt with 2,2,2-trifluoroacetic acid]
17 | 1000 to 10000 nM | > 1000 nM | < 1000 nM | O=C(O)C1CCN(C2COc3cc(OCc4ccccc4)ccc3C2)CC1 (stereo not drawn) [Compound 112, 1-(7-benzyloxychroman-3-yl)piperidine-4-carboxylic acid]
18 | 100 to 1000 nM | > 1000 nM | > 1000 nM | O=C(O)CNC1COc2cc(OCC3CCCCC3)ccc2C1 (stereo not drawn) [Compound 113, 2-[[7-(cyclohexylmethoxy)chroman-3-yl]amino]acetic acid]
19 | 1000 to 10000 nM | > 1000 nM | > 1000 nM | O=C(O)CNC1COc2cc(OCCc3c(Cl)cccc3Cl)ccc2C1 (stereo not drawn) [Compound 114, 2-[[7-[2-(2,6-dichlorophenyl)ethoxy]chroman-3-yl]amino]acetic acid]
20 | < 10 nM | > 1000 nM | < 1000 nM | CCc1cccc(Cl)c1COc1ccc2c(c1)OCC(NC1(CC(=O)O)CCCC1)C2 (stereo not drawn) [Compound 115, 2-(1-((7-((2-chloro-6-ethylbenzyl)oxy)chroman-3-yl)amino)cyclopentyl) acetic acid]
21 | < 10 nM | > 1000 nM | < 1000 nM | CCc1cccc(Cl)c1COc1ccc2c(c1)OCC(NC1(CC(=O)O)CCC1)C2 (stereo not drawn) [Compound 116, 2-(1-((7-((2-chloro-6-ethylbenzyl)oxy)chroman-3-yl)amino)cyclobutyl)acetic acid]
22 | < 10 nM | > 1000 nM | < 1000 nM | CCc1cccc(F)c1COc1ccc2c(c1)OCC(NC1(CC(=O)O)CCCC1)C2 (stereo not drawn) [Compound 117, 2-(1-((7-((2-ethyl-6-fluorobenzyl)oxy)chroman-3-yl)amino)cyclopentyl) acetic acid]
23 | < 10 nM | > 1000 nM | < 1000 nM | CCc1cccc(F)c1COc1ccc2c(c1)OCC(NC1(CC(=O)O)CCC1)C2 (stereo not drawn) [Compound 118, 2-(1-((7-((2-ethyl-6-fluorobenzyl)oxy)chroman-3-yl)amino)cyclobutyl)acetic acid]
24 | 1000 to 10000 nM | > 1000 nM | > 1000 nM | O=C(O)C1(NC2COc3cc(OCc4c(Cl)cccc4Cl)ccc3C2)CCC1 (stereo not drawn) [Compound 119, 1-((7-((2,6-dichlorobenzyl)oxy)chroman-3-yl)amino)cyclobutane-1-carboxylic acid]
25 | 10 to 100 nM | < 1000 nM | < 1000 nM | CCc1cccc(Cl)c1COc1ccc2c(c1)OCC(NC1(C(=O)O)CCC1)C2 (stereo not drawn) [Compound 120, 1-((7-((2-chloro-6-ethylbenzyl)oxy)chroman-3-yl)amino)cyclobutane-1-carboxylic acid]
26 | 100 to 1000 nM | > 1000 nM | < 1000 nM | CCc1cccc(Cl)c1COc1ccc2c(c1)OCC(NC13CC(C(=O)O)(C1)C3)C2 (stereo not drawn) [Compound 121, 3-((7-((2-chloro-6-ethylbenzyl)oxy)chroman-3-yl)amino)bicyclo[1.1.1]pentane-1-carboxylic acid]
27 | 10 to 100 nM | > 1000 nM | < 1000 nM | CCc1cccc(F)c1COc1ccc2c(c1)OCC(NC13CC(C(=O)O)(C1)C3)C2 (stereo not drawn) [Compound 122, 3-((7-((2-ethyl-6-fluorobenzyl)oxy)chroman-3-yl)amino)bicyclo[1.1.1]pentane-1-carboxylic acid]
28 | < 10 nM | > 1000 nM | < 1000 nM | CCc1cccc(Cl)c1COc1ccc2c(c1)OCC(N(C)CC(=O)O)C2 (stereo not drawn) [Compound 124, N-(7-((2-chloro-6-ethylbenzyl)oxy)chroman-3-yl)-N-methylglycine]

Row | SMILES | EC50 (human S1PR5) | EC50 (human S1PR1) | EC50 (human S1PR4)
29 | O=C(O)C1CN(C2COc3cc(OCCCCOc4cccc(F)c4)ccc3C2)C1 (stereo not drawn) [Compound 102, 1-[7-[4-(3-fluorophenoxy)butoxy]chroman-3-yl]azetidine-3-carboxylic acid] | 1000 to 10000 nM | > 1000 nM | > 1000 nM
